Results as given in patent US9005678B1, “Pharmaceutical composition for treating cancer and use thereof” (Jiangsu Province Institute of Traditional Chinese Medicine, priority 2013, dated 2015).

Tests used:
TRPA1 mRNA = TRPA1 mRNA expression in DRG by real-time PCR; type: in vivo, rat; conditions: L4-L6 DRG; oxaliplatin model group; P<0.01
Method: (§1) (2) Modeling and Administration: The first day of drug treatment was referred to as d1. […] After the last administration, the rats were sacrificed. Spinal cord and L5 dorsal root ganglia were harvested from all experimental animals, and taken to make tissue sections, which were stained with Nissl staining to observe the extent of damage in neurons. The expressions of pain-related TRP ion channel proteins, TRPMS, TRPV1, and TRPA1mRNA, in dorsal root ganglion tissue were determined by qPCR assay. (4) Von Frey test for mechanical allodynia: According to the method described by Chaplan et al^[22], the mechanical allodynia was assessed by von Frey test. Rats were placed in a clear plastic box (22×12×22 cm) with a wire mesh floor and allowed to habituate for 15 min prior to testing. […] Withdrawal responses to the stimulation of von Frey filaments were recorded and paw withdrawal thresholds were determined by a modified up-down method. Each von Frey filament with equivalent force was measured for five times, and the time interval between simulations was 30 seconds, 3 or more times of positive reactions out of 5 simulations was deemed to be mechanical allodynia. […]
(§2) To elucidate the mechanism of the preventive effect of AC591 on oxaliplatin-induced peripheral neuropathy, we determined the expression of TRPM8, TRPV1 and TRPA1 mRNA in L4-L6 DRG using real-time PCR.

[1] = tested on: CT26 murine colorectal cancer cells; assay: Colorectal cancer subcutaneous xenograft, tumor volume; type: in vivo, Balb/c mice; conditions: oxaliplatin 5 mg/kg i.p.; days 4 and 7; P<0.05
Method: Experimental Animals and Cell Lines: Six-week-old Balb/c mice weighing (16±2) g, bisexual each half, were purchased from Shanghai Slac Laboratory Animal Center and kept in SPF Laboratory Animal Room in Institute of Chinese Medicine and Pharmacy of Jiangsu Province. CT26 murine colorectal cancer cells were obtained from molecular biology laboratory of Institute of Chinese Medicine and Pharmacy of Jiangsu Province.
CT26 cells were cultured in Dulbecco's Modified Eagle Medium with 2.0 g/1 sodium bicarbonate plus 10% fetal bovine serum, 1% L-glutamine, 100 U/ml penicillin and 100 U/ml streptomycin. When the cells were approximately 80% confluent, the culture medium was discarded and washed with PBS. Trypsin was then introduced to perform digestion. When the connection between cells appeared loose, the trypsin was discarded, and cell culture medium was introduced to terminate the digestion. Cells were repeatedly and gently pipetted with a pipette so as to be taken off the wall to form cell suspension. It was collected into centrifuge tubes and centrifuged. The concentration of cell suspension was adjusted to 1×10^6/0.2 ml with 0.9% sterile saline. […]
Tumor volume and body weight were recorded every 3 days, and the tumor volume was calculated using the formula: tumor volume (mm^3)=length (mm)×width (mm)^2/2. […]

[2] = Body weight of CIPN rats (oxaliplatin-induced peripheral neuropathy model); type: in vivo, rat; conditions: oxaliplatin 4 mg/kg i.p. twice per week; after 7 days of modeling
Excerpt: (§3) Animals were housed 3 per cage in a temperature- and humidity-controlled environment under a 12/12-h light/dark cycle. Food and water were freely available. All experimental procedures were approved by the Animal Experimental committee of Jiangsu Province Academy of Traditional Chinese Medicine. All efforts were made to minimize the number of animals used and their suffering.
(§4) (1) Animal Grouping: the rats were randomly divided into five groups by using randomized grouping method (N=10 rats/group):
(§5) Group 1: saline (control group)
(§6) (2) Modeling and Administration: The first day of drug treatment was referred to as d1. […] After the last administration, the rats were sacrificed. Spinal cord and L5 dorsal root ganglia were harvested from all experimental animals, and taken to make tissue sections, which were stained with Nissl staining to observe the extent of damage in neurons. The expressions of pain-related TRP ion channel proteins, TRPMS, TRPV1, and TRPA1mRNA, in dorsal root ganglion tissue were determined by qPCR assay. (4) Von Frey test for mechanical allodynia: According to the method described by Chaplan et al^[22], the mechanical allodynia was assessed by von Frey test. Rats were placed in a clear plastic box (22×12×22 cm) with a wire mesh floor and allowed to habituate for 15 min prior to testing. […] 3.

[3] = cumulative dose of 1170 mg/m^2; cited from earlier work
CIPN rats = assay: Von Frey test for mechanical allodynia in CIPN rats; type: in vivo, rat; conditions: oxaliplatin 4 mg/kg i.p.; 14 days after the experiment; P<0.05
Excerpt: as §3, §4, §5, §6

DRG neurons = assay: Nissl staining of L5 dorsal root ganglia sections of CIPN rats; type: in vivo, rat; conditions: oxaliplatin 4 mg/kg i.p.
Method: as §6

TRPM8 mRNA = TRPM8 mRNA expression in DRG by real-time PCR; type: in vivo, rat; conditions: L4-L6 DRG; oxaliplatin model group; P<0.01
Method: as §1, §2

TRPV1 mRNA = TRPV1 mRNA expression in DRG by real-time PCR; type: in vivo, rat; conditions: L4-L6 DRG; oxaliplatin model group; P<0.01
Method: as §1, §2

O=C1[O][Pt]2([NH][C@@H]3CCCC[C@H]3[NH]2)[O]C1=O [oxaliplatin]
expression of TRPA1 mRNA, increase in model group compared with control group (TRPA1 mRNA): 2-4 fold | tumour volumes compared with vehicle [1]: significantly inhibited the increase of tumour volumes | body weight of rats in model group versus control group [2]: significantly lower | risk of neurotoxicity [3]: 50% | mechanical paw-withdrawing threshold, model group compared with control group (CIPN rats): significantly decreased | DRG neuron morphology in model group (DRG neurons): part of cell bodies and nuclei of neurons greatly shrinked | expression of TRPM8 mRNA, increase in model group compared with control group (TRPM8 mRNA): 2-4 fold | expression of TRPV1 mRNA, increase in model group compared with control group (TRPV1 mRNA): 2-4 fold
